Results reported in paper PMC3297362 (Journal of Medicinal Chemistry, 2012).

Tests used:
[1] = target: T1, hCOX-2 in HNSCC 1483 cells (Homo sapiens, UniProt P35354); format: cell-based; settings: at 5 μM
T1 sequence (P35354 18-604): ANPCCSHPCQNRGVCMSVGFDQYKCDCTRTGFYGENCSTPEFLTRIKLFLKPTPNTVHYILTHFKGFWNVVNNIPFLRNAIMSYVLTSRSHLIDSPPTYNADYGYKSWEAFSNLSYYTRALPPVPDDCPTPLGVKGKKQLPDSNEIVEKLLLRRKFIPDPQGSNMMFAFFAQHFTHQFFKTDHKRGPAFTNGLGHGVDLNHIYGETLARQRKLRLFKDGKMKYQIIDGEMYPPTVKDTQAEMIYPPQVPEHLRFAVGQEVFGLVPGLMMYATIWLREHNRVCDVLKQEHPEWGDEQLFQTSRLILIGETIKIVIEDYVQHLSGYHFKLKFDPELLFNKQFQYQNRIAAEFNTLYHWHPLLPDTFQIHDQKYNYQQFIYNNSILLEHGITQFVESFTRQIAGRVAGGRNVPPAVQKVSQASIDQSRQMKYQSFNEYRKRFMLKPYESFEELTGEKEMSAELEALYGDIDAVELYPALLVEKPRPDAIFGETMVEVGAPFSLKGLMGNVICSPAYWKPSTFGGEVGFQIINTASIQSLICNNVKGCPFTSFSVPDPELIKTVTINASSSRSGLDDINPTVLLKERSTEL

[2] = test system: peroxisome proliferator-activated receptor (PPAR)γ; settings: cell culture; cited from earlier work
[3] = target: T2, ovine COX-1 (Ovis aries, UniProt P05979); format: biochemical
T2 sequence (P05979 25-600): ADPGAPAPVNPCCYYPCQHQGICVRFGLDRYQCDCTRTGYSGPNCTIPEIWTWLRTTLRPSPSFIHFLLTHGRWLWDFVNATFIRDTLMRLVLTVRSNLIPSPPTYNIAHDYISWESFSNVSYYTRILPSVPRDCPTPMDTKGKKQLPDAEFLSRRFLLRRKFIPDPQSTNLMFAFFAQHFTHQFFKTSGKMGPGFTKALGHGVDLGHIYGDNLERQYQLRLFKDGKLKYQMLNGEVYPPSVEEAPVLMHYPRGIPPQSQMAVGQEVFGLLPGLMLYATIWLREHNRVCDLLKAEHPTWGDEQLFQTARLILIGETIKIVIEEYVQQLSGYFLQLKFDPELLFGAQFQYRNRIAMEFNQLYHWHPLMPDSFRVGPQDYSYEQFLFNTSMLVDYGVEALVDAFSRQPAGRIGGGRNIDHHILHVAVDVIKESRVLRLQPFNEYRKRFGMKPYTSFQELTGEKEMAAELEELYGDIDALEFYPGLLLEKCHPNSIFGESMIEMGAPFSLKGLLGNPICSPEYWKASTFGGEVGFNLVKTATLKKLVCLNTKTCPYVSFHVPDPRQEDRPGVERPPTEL

[4] = target: T3, murine COX-2 (Mus musculus, UniProt Q05769); assay: biochemical; settings: COX-2 IC50, purified mCOX-2; 5 μM AA
T3 sequence (Q05769 18-604): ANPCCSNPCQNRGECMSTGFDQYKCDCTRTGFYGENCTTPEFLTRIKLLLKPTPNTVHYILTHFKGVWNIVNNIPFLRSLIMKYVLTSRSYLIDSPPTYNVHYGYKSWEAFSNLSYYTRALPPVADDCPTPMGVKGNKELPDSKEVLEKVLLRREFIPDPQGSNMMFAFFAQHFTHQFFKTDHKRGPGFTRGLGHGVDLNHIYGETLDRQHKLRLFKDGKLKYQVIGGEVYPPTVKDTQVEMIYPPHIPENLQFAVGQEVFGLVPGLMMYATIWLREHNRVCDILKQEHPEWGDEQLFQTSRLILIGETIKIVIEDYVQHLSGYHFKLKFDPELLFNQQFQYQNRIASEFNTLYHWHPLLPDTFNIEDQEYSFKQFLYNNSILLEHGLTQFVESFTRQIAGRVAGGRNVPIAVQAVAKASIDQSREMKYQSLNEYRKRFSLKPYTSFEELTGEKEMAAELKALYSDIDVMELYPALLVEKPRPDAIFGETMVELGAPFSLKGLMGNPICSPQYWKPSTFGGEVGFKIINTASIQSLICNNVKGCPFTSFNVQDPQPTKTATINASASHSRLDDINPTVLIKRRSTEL

| inhibition of hCOX-2 in HNSCC 1483 cells (in words) [1] | improvement in activity against COX-1 as compared with reference compound 2 [3] | IC50 [4] | Compound | activation of PPARγ (in words) [2] |
| --- | --- | --- | --- | --- |
| no inhibition |  |  | CSc1ccc(/C=C2\C=C(CC(=O)O)c3cc(F)ccc32)cc1 [compound 2, (E)-2-(5-fluoro-1-(4-(methylthio)benzylidene)-1H-inden-3-yl)acetic acid] |  |
| no inhibition |  |  | O=C(O)CC1=C/C(=C\c2ccc(-c3ccccc3)cc2)c2ccc(F)cc21 [compound 13a] | potent activator |
|  | more than 4 fold | 14 µM | O=C(CC1=C/C(=C\c2ccc(-c3ccccc3)cc2)c2ccc(F)cc21)NS(=O)(=O)C(F)(F)F [compound 21c, (E)-2-(1-([1,1′-Biphenyl]-4-ylmethylene)-5-fluoro-1H-inden-3-yl)-N-((trifluoromethyl)sulfonyl)-acetamide] |  |
